Data on ten molecules can be found in PubChem BioAssay (NCI).

Among the test systems are SW-620 colon; COLO 205 colon; SNB-19 CNS; SR leukemia; M14 melanoma; HCC-2998 colon; CAKI-1 renal; NCI/ADR-RES ovarian; SK-MEL-2 melanoma; EKVX NSCLC.
Holding throughout (assay): inhibition of tumour cell growth, NCI panel, 48 h

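Values below derive from 48-hour exposures of cells grown in 96-well plates, with endpoints linearly interpolated between the two concentrations bracketing the appropriate inhibition level. GI50 is the concentration that inhibits growth by half. TGI marks complete inhibition of growth.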

Turning to `COc1ccc(-c2nc3sc4c(c3c(=O)[nH]2)CCCCCC4)cc1`, the GI50 in the test with SW-620 colon is 1.81 µM; in the test on COLO 205 colon it was 2.37 µM; in the test with SNB-19 CNS it was 4.74 µM; in the test with SR leukemia, 0.717 µM; with M14 melanoma, 1.48 µM; in the test with HCC-2998 colon, over 33.2 µM. Besides, the GI50 in the test with CAKI-1 renal is over 33.2 µM; in the test with NCI/ADR-RES ovarian, 2.16 µM; in the test on SK-MEL-2 melanoma, 2.83 µM. The TGI in the test with SW-620 colon, in the test on COLO 205 colon, with SNB-19 CNS, in the test with SR leukemia, in the test on M14 melanoma and with HCC-2998 colon was over 33.2 µM throughout. In addition, the results for the TGI in the test with CAKI-1 renal, in the test on NCI/ADR-RES ovarian and in the test with SK-MEL-2 melanoma were over 33.2 µM, over 33.2 µM and 23.5 µM, respectively.
Regarding `CC1(C)CC(=O)c2c(C(F)(F)F)nn(-c3ccc(C(N)=O)c(NC4CCC(OC(=O)CN)CC4)c3)c2C1` (centres undefined), the GI50 is 0.038 µM with SW-620 colon; 0.0289 µM with COLO 205 colon; 0.142 µM in the test with SNB-19 CNS; 0.0301 µM in the test on SR leukemia; 0.0608 µM in the test with M14 melanoma; 0.195 µM in the test on HCC-2998 colon. The GI50 in the test on CAKI-1 renal was 2.9 µM; in the test with NCI/ADR-RES ovarian, 12.5 µM; with SK-MEL-2 melanoma it was 0.0683 µM. Moreover, the TGI in the test on SW-620 colon was over 100 µM; with COLO 205 colon, 8.03 µM; in the test on SNB-19 CNS, over 100 µM; with SR leukemia, 17.6 µM; in the test on M14 melanoma, 26.5 µM; in the test with HCC-2998 colon it was 13.2 µM. Further, the TGI in the test with CAKI-1 renal, in the test with NCI/ADR-RES ovarian and in the test with SK-MEL-2 melanoma was over 100 µM in each case.
`Cc1ccccc1[P+](Cc1ccccc1)(c1ccccc1)c1ccccc1`: the GI50 is 2.62 µM in the test with SW-620 colon; 1.51 µM in the test on COLO 205 colon; 2.8 µM with SNB-19 CNS; 1.6 µM in the test on SR leukemia; 2.51 µM in the test with M14 melanoma; 2.06 µM in the test on HCC-2998 colon. Also, the values for the GI50 with CAKI-1 renal, in the test with NCI/ADR-RES ovarian and in the test with SK-MEL-2 melanoma were 12.1 µM, over 100 µM and 2.67 µM, respectively. Besides, the TGI was 33.3 µM in the test on SW-620 colon; 4 µM with COLO 205 colon; over 100 µM in the test with SNB-19 CNS; 15.7 µM with SR leukemia; 12.6 µM in the test with M14 melanoma; 23.2 µM in the test on HCC-2998 colon. For the same molecule, the TGI was over 100 µM in the test with CAKI-1 renal, over 100 µM in the test with NCI/ADR-RES ovarian and 6.65 µM with SK-MEL-2 melanoma.
Turning to `CCCNC1=C(C(=O)OCC)C(=O)CO1`, the TGI with SW-620 colon, in the test on SNB-19 CNS, with SR leukemia, with EKVX NSCLC, with M14 melanoma and in the test on HCC-2998 colon was over 100 µM in each case. Further, the TGI with CAKI-1 renal and with SK-MEL-2 melanoma was over 100 µM in each case.
With `CCCCCCCCCCCC(=O)OCC1OC(n2cc(F)c(=O)[nH]c2=O)C(NC(=O)OCc2ccccc2)C(OC(=O)CCCCCCCCCCC)C1O` (centres undefined), the TGI in the test on SW-620 colon, with COLO 205 colon, in the test on SNB-19 CNS, in the test with SR leukemia, in the test with EKVX NSCLC and with M14 melanoma was over 100 µM throughout. Moreover, the TGI in the test on HCC-2998 colon, in the test on CAKI-1 renal and in the test on SK-MEL-2 melanoma was over 100 µM each time.
For `O=[N+]([O-])C1C2C=CC(C2)[C@H]1c1ccco1` (some centres undefined), the TGI in the test with SW-620 colon, in the test on COLO 205 colon, with SNB-19 CNS, in the test with SR leukemia, with EKVX NSCLC and in the test with M14 melanoma was over 100 µM in each case. The TGI in the test with HCC-2998 colon, with CAKI-1 renal and in the test on SK-MEL-2 melanoma was over 100 µM throughout.
With `Cc1ccc(C(=O)c2nnc(C(=O)c3ccc(C)cc3)nn2)cc1`, the TGI is 44.1 µM in the test on SW-620 colon; over 100 µM in the test with COLO 205 colon; over 100 µM with SNB-19 CNS; 37.6 µM with SR leukemia; over 100 µM in the test on EKVX NSCLC; 56.3 µM with M14 melanoma. Moreover, the TGI with HCC-2998 colon, in the test on CAKI-1 renal and with SK-MEL-2 melanoma was over 100 µM throughout.
As for `NNC(=O)/C(=C/c1ccc(Cl)cc1Cl)NC(=O)c1ccccc1`, the TGI with SW-620 colon, in the test with COLO 205 colon, in the test on SNB-19 CNS, with SR leukemia, in the test on EKVX NSCLC and in the test with M14 melanoma was over 100 µM each time. For the same molecule, the TGI in the test on HCC-2998 colon, in the test with CAKI-1 renal and in the test on SK-MEL-2 melanoma was over 100 µM in each case.
With `COc1cc2c(c(OC)c1)C1c3ccccc3NC(=O)N1CC2` (centres undefined), the GI50 in the test with SW-620 colon was 4.68 µM; in the test on COLO 205 colon, 2.82 µM; with SNB-19 CNS, 7 µM; in the test on SR leukemia it was 2.77 µM; in the test on EKVX NSCLC it was 4.79 µM; in the test on M14 melanoma, 1.97 µM. Moreover, the GI50 in the test with HCC-2998 colon is 3.31 µM; in the test with CAKI-1 renal it was 4.62 µM; in the test with SK-MEL-2 melanoma, 2.85 µM. For the same molecule, the TGI in the test on SW-620 colon was over 100 µM; in the test with COLO 205 colon it was 8.25 µM; in the test on SNB-19 CNS it was over 100 µM; with SR leukemia, over 100 µM; in the test with EKVX NSCLC it was over 100 µM; in the test with M14 melanoma, 21.4 µM. Further, the TGI was over 100 µM with HCC-2998 colon, over 100 µM in the test with CAKI-1 renal and 91.4 µM in the test with SK-MEL-2 melanoma.
With `Cc1cc(N(CCCl)CCCl)ccc1C=Nc1ccc(-c2csc(Cc3ccccc3)n2)cc1`, the GI50 in the test on SW-620 colon is 18.1 µM; in the test on COLO 205 colon it was 13.1 µM; in the test with SNB-19 CNS, 16.8 µM; in the test with SR leukemia, 1.07 µM; with M14 melanoma it was 15.7 µM; in the test with HCC-2998 colon, 14.4 µM. The GI50 in the test with CAKI-1 renal was 2.18 µM; with NCI/ADR-RES ovarian, 5.18 µM; with SK-MEL-2 melanoma, 18.8 µM. For the same molecule, the TGI in the test with SW-620 colon was over 100 µM; in the test with COLO 205 colon it was 34.1 µM; with SNB-19 CNS, over 100 µM; with SR leukemia, 73.2 µM; with M14 melanoma, 58.6 µM; with HCC-2998 colon, 33.3 µM. The values for the TGI in the test with CAKI-1 renal, in the test with NCI/ADR-RES ovarian and in the test on SK-MEL-2 melanoma were 30.5 µM, 34 µM and 40.3 µM, respectively.
